Values joined by “and” are separate entries in the source; they are usually repeats but may differ in a detail not shown here. Equal entries are not always repeated.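 Values below derive from 48-hour exposures of cells grown in 96-well plates, with endpoints linearly interpolated between the two concentrations bracketing the appropriate inhibition level. At the GI50, growth is halved. Definition used: TGI = concentration required for complete inhibition of growth.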 Where only a bound is given, the exact number is not on record here.

Some test systems named below: HCT-116 colon; A498 renal; HOP-92 NSCLC; HL-60(TB) leukemia; RPMI-8226 leukemia; LOX IMVI melanoma; NCI/ADR-RES ovarian; NCI-H226 lung; NCI-H522 lung; UACC-62 melanoma.
Experiment in all cases: NCI-60 cell line screen, 48 h

Regarding `CC[C@]12C=CCN3CC[C@]4(C(=C(C(=O)OC)C1)Nc1cc5c(cc14)[C@@H]1[C@H](O5)[C@@H](O)[C@@]4(CC)CC(C(=O)OC)=C5Nc6ccccc6[C@@]56CCN1[C@@H]46)[C@@H]32`, the GI50 in the test on HCT-116 colon is 216 nM and 341 nM; in the test on A498 renal, 72.9 nM and 283 nM; in the test on HOP-92 NSCLC, 114 nM and 138 nM; in the test on HL-60(TB) leukemia, 134 nM and 269 nM; in the test with RPMI-8226 leukemia it was 141 nM and 234 nM; with LOX IMVI melanoma, 390 nM. In addition, the GI50 in the test with NCI/ADR-RES ovarian was 825 nM and 714 nM; with NCI-H226 lung, 688 nM; in the test with NCI-H522 lung it was 202 nM and 312 nM; in the test on UACC-62 melanoma, 137 nM and 158 nM. Besides, the TGI is 2590 nM and 1650 nM with HCT-116 colon; 0.788 µM and 1.17 µM with A498 renal; 12.4 µM and 9.48 µM in the test on HOP-92 NSCLC; 9.05 µM and 1.91 µM with HL-60(TB) leukemia; 2.49 µM and 1.5 µM with RPMI-8226 leukemia; 2350 nM in the test on LOX IMVI melanoma. Further, the TGI is 25 µM and > 100 µM in the test with NCI/ADR-RES ovarian; 25 µM in the test on NCI-H226 lung; 2750 nM and 5330 nM with NCI-H522 lung.
In the case of `CCOC(=O)c1c(C)n([O-])c2cc(F)c(F)cc2[n+]1=O`, the GI50 in the test on HCT-116 colon was 351 nM; with A498 renal, 15900 nM; with HOP-92 NSCLC, 1100 nM; with HL-60(TB) leukemia, 105 nM; in the test on RPMI-8226 leukemia it was 6180 nM; with LOX IMVI melanoma, 514 nM. For the same compound, the GI50 with NCI/ADR-RES ovarian is 432 nM; with NCI-H226 lung, 1940 nM; in the test with NCI-H522 lung, 1040 nM; in the test with UACC-62 melanoma, 1470 nM. The TGI in the test with HCT-116 colon stood at 1280 nM; in the test on A498 renal it was 30 µM; with HOP-92 NSCLC, 3.08 µM; with RPMI-8226 leukemia, 28.2 µM; with LOX IMVI melanoma, 1630 nM; in the test with NCI/ADR-RES ovarian, 1.98 µM. The figures for the TGI with NCI-H226 lung, in the test on NCI-H522 lung and in the test with UACC-62 melanoma were 3.94 µM, 2720 nM and 2910 nM, respectively.
`CCc1ccc(Oc2c(-c3ccc(OCCc4cccc(C(F)(F)F)c4)cc3O)n[nH]c2C(F)(F)F)cc1`: the GI50 with HCT-116 colon was 1530 nM; with A498 renal, 5930 nM; in the test on HOP-92 NSCLC, 1360 nM; in the test on HL-60(TB) leukemia it was 5200 nM; in the test on RPMI-8226 leukemia, 1800 nM; in the test on LOX IMVI melanoma, 1940 nM. In addition, the GI50 with NCI/ADR-RES ovarian was 5190 nM; in the test with NCI-H226 lung, 6900 nM; with NCI-H522 lung it was 1880 nM; in the test on UACC-62 melanoma, 3440 nM. For the same compound, the TGI in the test with HCT-116 colon was 5470 nM; in the test on A498 renal it was 12.8 µM; in the test on HOP-92 NSCLC, 5.01 µM; in the test on HL-60(TB) leukemia it was 12.9 µM; in the test on RPMI-8226 leukemia, 7.55 µM; in the test with LOX IMVI melanoma it was 6890 nM. The TGI with NCI/ADR-RES ovarian came out at 11.9 µM; with NCI-H226 lung it was 14.3 µM; in the test with NCI-H522 lung, 5770 nM; with UACC-62 melanoma it was 10400 nM.
Take `CS(=O)(=O)Nc1cc(-c2ccc3ncc(C#N)c(Nc4ccc(F)c(Cl)c4)c3c2)cnc1Cl`: the GI50 with HCT-116 colon is 48.6 nM; in the test with A498 renal, 39.8 nM; with HOP-92 NSCLC, 33.3 nM; in the test with HL-60(TB) leukemia, 120 nM; in the test on RPMI-8226 leukemia, 83.3 nM; in the test with LOX IMVI melanoma, 169 nM. The GI50 was 633 nM with NCI/ADR-RES ovarian, 258 nM in the test with NCI-H226 lung, 113 nM with NCI-H522 lung and 73 nM with UACC-62 melanoma. For the same compound, the TGI in the test on A498 renal is 0.302 µM; in the test on HOP-92 NSCLC, 0.61 µM; in the test on HL-60(TB) leukemia, 0.741 µM; in the test with RPMI-8226 leukemia, 0.469 µM; in the test on LOX IMVI melanoma it was 698 nM; in the test with NCI/ADR-RES ovarian, above 100 µM. For the same compound, the TGI in the test with NCI-H226 lung came to 2.16 µM; with NCI-H522 lung, 1460 nM; in the test on UACC-62 melanoma, 596 nM.
On to `COc1cccc2nc(Nc3cccc(NC(=O)c4ccc(N5CCN(C)CC5)c(C(F)(F)F)c4)c3)ccc12`, for which the GI50 was 869 nM in the test with HCT-116 colon; 1800 nM in the test on A498 renal; 854 nM with HOP-92 NSCLC; 1070 nM in the test with HL-60(TB) leukemia; 1650 nM in the test with RPMI-8226 leukemia; 874 nM in the test with LOX IMVI melanoma. The GI50 with NCI/ADR-RES ovarian was 1500 nM; in the test with NCI-H226 lung, 2260 nM; in the test with NCI-H522 lung, 1040 nM; in the test on UACC-62 melanoma, 1060 nM. Also, the TGI in the test on HCT-116 colon worked out at 1890 nM; in the test with A498 renal it was 6.46 µM; in the test with HOP-92 NSCLC, 4.03 µM; in the test on HL-60(TB) leukemia, 2.35 µM; in the test with RPMI-8226 leukemia, 6.44 µM; in the test with LOX IMVI melanoma it was 1570 nM. Also, the TGI was determined as 4.95 µM in the test on NCI/ADR-RES ovarian, 8.61 µM in the test on NCI-H226 lung, 2000 nM in the test on NCI-H522 lung and 2280 nM in the test on UACC-62 melanoma.
Take `O=S(=O)(NCCNc1nccc(-c2c(-c3ccc(F)cc3)nc3sccn23)n1)c1ccc(O)cc1`: the GI50 is 1430 nM in the test with HCT-116 colon; 8800 nM with A498 renal; 1310 nM in the test with HOP-92 NSCLC; 4930 nM in the test on HL-60(TB) leukemia; 4520 nM with RPMI-8226 leukemia; 1880 nM in the test with LOX IMVI melanoma. The GI50 is 19500 nM in the test on NCI/ADR-RES ovarian, 6910 nM in the test with NCI-H226 lung, 3510 nM with NCI-H522 lung and 2350 nM with UACC-62 melanoma. Further, the TGI stood at 22100 nM in the test on HCT-116 colon; 23.2 µM with A498 renal; 9.07 µM with HOP-92 NSCLC; 30.5 µM in the test with HL-60(TB) leukemia; 29.3 µM with RPMI-8226 leukemia; 49600 nM in the test on LOX IMVI melanoma. Further, the TGI with NCI/ADR-RES ovarian was above 100 µM; in the test with NCI-H226 lung, 21.9 µM; in the test on NCI-H522 lung, 19200 nM; in the test with UACC-62 melanoma, 18800 nM.
As for `O=C(/C=C(/C=C/c1cccc2[nH]ccc12)OB(F)F)/C=C/c1cccc2[nH]ccc12`, the GI50 was 277 nM in the test with HCT-116 colon; 1700 nM with A498 renal; 1860 nM with HOP-92 NSCLC; 641 nM in the test with HL-60(TB) leukemia; 354 nM in the test on RPMI-8226 leukemia; 348 nM in the test with LOX IMVI melanoma. Moreover, the GI50 was 399 nM in the test on NCI/ADR-RES ovarian, 1870 nM with NCI-H226 lung, 359 nM with NCI-H522 lung and 833 nM in the test on UACC-62 melanoma. Moreover, the TGI stood at 951 nM in the test with HCT-116 colon; 3.42 µM with A498 renal; 5.15 µM in the test on HOP-92 NSCLC; 7.23 µM in the test with HL-60(TB) leukemia; 2.55 µM with RPMI-8226 leukemia; 1020 nM with LOX IMVI melanoma. The TGI in the test with NCI/ADR-RES ovarian was above 100 µM; in the test on NCI-H226 lung it was 5.59 µM; with NCI-H522 lung, 2240 nM; in the test with UACC-62 melanoma, 2970 nM.

For the origin of these results see PubChem BioAssay (NCI).
